Results: patent US8937183B2, “Detection of hydrogen peroxide” (Promega Corporation, priority 2011, dated 2015)

Columns and labels:
[1] = Light generation from compounds following incubation with hydrogen peroxide in different pH solutions (D-cysteine conversion, LDR); format: biochemical; details: for Signal to Background Ratios: signal with peroxide to background no peroxide
Description: In this experiment, various compounds were tested for their ability to detect hydrogen peroxide in different pH solutions. Several compounds are shown to give much better signal strength and signal to background ratios than PBI 3048 (Example 23). 4 mg/ml solutions of compounds PBI 4480, 4481, 4452, 4470, 4472, 3048 (FIGS. 1 and 2) were made by dissolving them in DMSO (Fluka 41641). 30 μl of the compound solutions was diluted to 1.5 ml with Nanopure water, and 50 μl aliquots added as follows into a white, 96-well luminometer plate: PBI 4481, row A1-12; PBI 4480, row B1-12; PBI 4452, row C1-12; PBI 3048, row D1-12; PBI 4472, row E1-12 and PBI 4470, row F1-12.
25 μl of 200 mM TRIS buffer, pH 7.6 was added to wells A1-F4, 25 μl of 200 mM TRIS buffer, pH 8.8 was added to wells A5-F8, and 25 μl of 200 mM Tris buffer, pH 10.4 was added […].
30% hydrogen peroxide (Sigma H 1009-5 ml) was diluted to 40 μM in Nanopure water, and 25 μl added to columns 3, 4, 7, 8, 11 and 12 of the plate. 25 μl water was added to columns 1, 2, 5, 6, 9, and 10 of the plate, and the plate incubated at room temperature for 60 minutes.
A conversion solution was made by mixing 100 μl of 100 mM D-cysteine, 1 ml Tris Buffer pH 8.8 and 8.9 ml nanopure water. After mixing, 80 μl of the solution was added to wells A1-F12 of a new luminometer plate.
After incubation, 20 μl of sample from wells A1-F12 of the first plate was transferred to the same well in the new luminometer plate. The new plate was incubated at room temperature for 5 minutes, 100 μl of LDR (Example 23) was added to wells A1-F12, and bioluminescence detected on a Glo Max® luminometer (Promega).
The RLUs for the duplicate wells were averaged. The averages for the wells containing hydrogen peroxide were compared to the wells without hydrogen peroxide at the same pH (Table 2). BZT is used to designate benzothiazole derivatives of the compounds.
The Signal to Background (S/B) ratio is used to compare assay reagents with very difference signal strengths. An assay with a higher S/B ratio is often considered a better assay than one with a smaller S/B ratio (with all other factors being relatively equal).

[2] = Generation of bioluminescence from luciferin borates upon treatment with hydrogen peroxide (luciferase light reaction); format: biochemical; details: for light signal increase upon addition of hydrogen peroxide (in words): all pH values 6.87 to 9.18
Description: In this example, luciferin borates were incubated with hydrogen peroxide, and luciferin generation was measured using a light reaction catalyzed by luciferase. An increase in light output (bioluminescence) as a result of treatment of the luciferin borates with hydrogen peroxide indicates generation of luciferin as a result of the reaction with hydrogen peroxide.
1 M phosphate solutions (either 6.8 g of KH2PO4 (Fisher) or 11.4 g of K2HPO4 (Sigma) were dissolved in Nanopure water to 1 M) were diluted 1:5 with Nanopure water to produce 200 mM phosphate solutions. 200 mM phosphate buffers at pH 6.87, 7.41, 7.73, 8.04, and 9.18 were prepared. 4 mg/ml solutions of PBI 3048, 4013, 4424 and 4425 (FIG. 1) in DMSO (Fluka 41641) were made from solid powder.
Into two 96-well white, solid bottom luminometer plates (Promega Z3291) (labeled “A” and “B”), 50 μl of 200 mM phosphate buffer pH 6.87 was added to wells A1-H2; 50 μl of 200 mM phosphate pH 7.41 was added to wells A3-H4; 50 μl of 200 mM phosphate buffer pH 7.73 was added to wells A5-H6; 50 μl of 200 mM phosphate buffer pH 8.04 was added to wells A7-H8; and 50 μl of 200 mM phosphate buffer pH 9.18 was added to wells A9-H10.
50 μl of 4 mg/ml PBI 4013 in DMSO was diluted to 1.25 ml with Nanopure water, and 25 μl added to wells A1-D10 of plate A. 50 μl of 4 mg/ml PBI 4424 was diluted to 1.25 ml with Nanopure water, and 25 μl added to E1-H10 of plate A. 50 μl of 4 mg/ml PBI 3048 was diluted to 1.25 ml with Nanopure water, and 25 μl added to A1-D10 of plate B. 50 μl of 4 mg/ml PBI 4425 was diluted to 1.25 ml with Nanopure water, and 25 μl added to E1-H10 of plate B. 25 μl of Nanopure water was added to rows A and E of both plates. 17 μl of Nanopure water was added to rows B and F of both plates; and 8 μl of Nanopure water was added to rows C and G of both plates
A hydrogen peroxide solution (30% hydrogen peroxide, Sigma H1009-5 ml) was diluted to 60 μM hydrogen peroxide with Nanopure water, and 25 μl of the 60 μM hydrogen peroxide was added to rows D and H of both plates; 17 μl of […] hydrogen peroxide was added to rows C and G of both plates; and 8 μl of […] hydrogen peroxide was added to rows B and F of both plates. Both plates A and B were then gently mixed for 70 minutes.
A bottle of Reconstitution Buffer with Esterase (Promega V144B) was thawed and used to reconstitute a Luciferin Detection Reagent (Promega V859B) to create a reconstituted Luciferin Detection Reagent (“LDR”). 15 ml of 1 M HEPES buffer, pH 7.5 was mixed with 25 ml of the LDR, and 80 μl added to wells A1-H10 of two new luminometer plates (“R1” and “R2”).
Following incubation, 20 μl of the contents of wells A1-H10 of plate A was transferred to the same wells in plate R1, and 20 μl of A1-H10 of plate B was transferred to the same wells in plate R2. Plate R1 and R2 were then incubated at room temperature for 15 minutes, and bioluminescence was measured with a GloMax® luminometer (Promega Corp).
Bioluminescence from duplicate wells was averaged, and the average relative light units (RLUs) from samples containing peroxide were compared to those from the samples not containing peroxide incubated at the same pH (Table 1).

[3] = pH 7.6 TRIS buffer, No H2O2, 60 minutes
[4] = pH 7.6 TRIS buffer, With H2O2 (25 μl of 40 μM added), 60 minutes
[5] = pH 8.8 TRIS buffer, No H2O2, 60 minutes
[6] = pH 8.8 TRIS buffer, With H2O2 (25 μl of 40 μM added), 60 minutes
[7] = pH 10.4 Tris buffer, No H2O2, 60 minutes
[8] = pH 10.4 Tris buffer, With H2O2 (25 μl of 40 μM added), 60 minutes
[9] = H2O2 0 μM, phosphate buffer pH 6.87, 70 minutes
[10] = H2O2 0 μM, phosphate buffer pH 7.41, 70 minutes
[11] = H2O2 0 μM, phosphate buffer pH 7.73, 70 minutes
[12] = H2O2 0 μM, phosphate buffer pH 8.04, 70 minutes
[13] = H2O2 0 μM, phosphate buffer pH 9.18, 70 minutes
[14] = H2O2 5 μM, phosphate buffer pH 6.87, 70 minutes
[15] = H2O2 5 μM, phosphate buffer pH 7.41, 70 minutes
[16] = H2O2 5 μM, phosphate buffer pH 7.73, 70 minutes
[17] = H2O2 5 μM, phosphate buffer pH 8.04, 70 minutes
[18] = H2O2 5 μM, phosphate buffer pH 9.18, 70 minutes
[19] = H2O2 10 μM, phosphate buffer pH 6.87, 70 minutes
[20] = H2O2 10 μM, phosphate buffer pH 7.41, 70 minutes
[21] = H2O2 10 μM, phosphate buffer pH 7.73, 70 minutes
[22] = H2O2 10 μM, phosphate buffer pH 8.04, 70 minutes
[23] = H2O2 10 μM, phosphate buffer pH 9.18, 70 minutes
[24] = H2O2 15 μM, phosphate buffer pH 6.87, 70 minutes
[25] = H2O2 15 μM, phosphate buffer pH 7.41, 70 minutes
[26] = H2O2 15 μM, phosphate buffer pH 7.73, 70 minutes
[27] = H2O2 15 μM, phosphate buffer pH 8.04, 70 minutes
[28] = H2O2 15 μM, phosphate buffer pH 9.18, 70 minutes

Row | average relative light units (bioluminescence) [2, 9] | average relative light units (bioluminescence) [2, 10] | average relative light units (bioluminescence) [2, 11] | average relative light units (bioluminescence) [2, 12] | average relative light units (bioluminescence) [2, 13] | average relative light units (bioluminescence) [2, 14] | average relative light units (bioluminescence) [2, 15] | average relative light units (bioluminescence) [2, 16] | average relative light units (bioluminescence) [2, 17] | average relative light units (bioluminescence) [2, 18] | average relative light units (bioluminescence) [2, 19] | average relative light units (bioluminescence) [2, 20] | average relative light units (bioluminescence) [2, 21] | average relative light units (bioluminescence) [2, 22] | average relative light units (bioluminescence) [2, 23] | average relative light units (bioluminescence) [2, 24] | average relative light units (bioluminescence) [2, 25] | average relative light units (bioluminescence) [2, 26] | average relative light units (bioluminescence) [2, 27] | average relative light units (bioluminescence) [2, 28] | SMILES | other results
1 |  |  |  |  |  |  |  |  |  |  |  |  |  |  |  |  |  |  |  |  | N#Cc1nc2ccc(OCc3ccc(B(O)O)cc3)cc2s1 [PBI 4452, (4-(((2-cyanobenzo[d]thiazol-6-yl)oxy)methyl)phenyl)boronic acid] | Signal to Background Ratios ([1]; pH 7.6): 1.9; averaged RLUs (bioluminescence) [1, 3]: 607,036 RLU; averaged RLUs (bioluminescence) [1, 4]: 1,182,338 RLU; Signal to Background Ratios ([1]; pH 8.8): 4.4; averaged RLUs (bioluminescence) [1, 5]: 632,327 RLU; averaged RLUs (bioluminescence) [1, 6]: 2,790,924 RLU; Signal to Background Ratios ([1]; pH 10.4): 15.8; averaged RLUs (bioluminescence) [1, 7]: 921,935 RLU; averaged RLUs (bioluminescence) [1, 8]: 14,577,312 RLU
2 |  |  |  |  |  |  |  |  |  |  |  |  |  |  |  |  |  |  |  |  | N#Cc1nc2ccc(OCc3ccc(B(O)O)c(Cl)c3)cc2s1 [PBI 4470, (2-chloro-4-(((2-cyanobenzo[d]thiazol-6-yl)oxy)methyl)phenyl)boronic acid] | Signal to Background Ratios ([1]; pH 7.6): 1.4; averaged RLUs (bioluminescence) [1, 3]: 492,941 RLU; averaged RLUs (bioluminescence) [1, 4]: 701,300 RLU; Signal to Background Ratios ([1]; pH 8.8): 3.3; averaged RLUs (bioluminescence) [1, 5]: 468,729 RLU; averaged RLUs (bioluminescence) [1, 6]: 1,525,058 RLU; Signal to Background Ratios ([1]; pH 10.4): 16.3; averaged RLUs (bioluminescence) [1, 7]: 819,416 RLU; averaged RLUs (bioluminescence) [1, 8]: 13,391,102 RLU
3 | 17,522 RLU | 16,181 RLU | 17,087 RLU | 18,602 RLU | 17,794 RLU | 18,952 RLU | 17,583 RLU | 18,681 RLU | 20,935 RLU | 22,309 RLU | 19,891 RLU | 17,508 RLU | 19,298 RLU | 20,554 RLU | 20,333 RLU | 20,263 RLU | 19,332 RLU | 25,729 RLU | 21,486 RLU | 20,453 RLU | O=C(O)C1CSC(c2nc3ccc(OCc4c(B(O)O)ccc5ccccc45)cc3s2)=N1 (stereo not drawn) [PBI 4424] | light signal increase upon addition of hydrogen peroxide (in words) [2]: much smaller
4 | 421,702 RLU | 469,602 RLU | 573,023 RLU | 585,008 RLU | 700,831 RLU | 580,978 RLU | 760,900 RLU | 1,089,717 RLU | 1,534,619 RLU | 3,678,815 RLU | 680,475 RLU | 1,020,315 RLU | 1,634,356 RLU | 2,485,677 RLU | 5,433,577 RLU | 793,789 RLU | 1,282,281 RLU | 2,209,227 RLU | 3,373,538 RLU | 7,062,631 RLU | O=C(O)C1CSC(c2nc3ccc(OCc4ccc(B(O)O)c5ccccc45)cc3s2)=N1 (stereo not drawn) [PBI 4013] | light signal increase upon addition of hydrogen peroxide (in words) [2]: increased strongly
5 | 10,464 RLU | 10,266 RLU | 9,302 RLU | 10,312 RLU | 9,428 RLU | 13,296 RLU | 14,549 RLU | 13,739 RLU | 15,130 RLU | 19,728 RLU | 14,491 RLU | 14,768 RLU | 17,086 RLU | 19,258 RLU | 26,859 RLU | 14,105 RLU | 14,725 RLU | 15,789 RLU | 18,905 RLU | 24,236 RLU | CC(Oc1ccc2nc(C3=NC(C(=O)O)CS3)sc2c1)c1ccc(B(O)O)cc1 (stereo not drawn) [PBI 4425] | light signal increase upon addition of hydrogen peroxide (in words) [2]: much smaller
